# PubChem BioAssay (NCI)
#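 Grown in 96-well plates, cells were treated for 48 hours with each compound at five concentrations. Insufficient inhibition: endpoint recorded as highest concentration tested. The concentration for full growth arrest is given as TGI.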
# Tests used:
# Test in all cases: NCI tumour cell line growth inhibition, 48 h
# [1] = tested on: NCI-H226 lung
# [2] = tested on: COLO 205 colon
# [3] = tested on: MDA-N
# [4] = tested on: DU-145 prostate
# [5] = tested on: HOP-92 NSCLC
# [6] = tested on: TK-10 renal
# [7] = tested on: NCI/ADR-RES ovarian
# [8] = tested on: SF-268 CNS
# [9] = tested on: OVCAR-4 ovarian
# [10] = tested on: OVCAR-5 ovarian
# [11] = tested on: HCT-15 colon
# [12] = tested on: MCF7 breast
# [13] = tested on: BT-549 breast
# [14] = tested on: OVCAR-3 ovarian
# [15] = tested on: MDA-MB-435
# [16] = tested on: MOLT-4 leukemia
# [17] = tested on: UACC-62 melanoma
# [18] = tested on: CCRF-CEM leukemia
# [19] = tested on: HCT-116 colon
# [20] = tested on: SW-620 colon
# [21] = tested on: CAKI-1 renal
# [22] = tested on: RPMI-8226 leukemia
# [23] = tested on: HOP-62 NSCLC
# [24] = tested on: EKVX NSCLC
# [25] = tested on: SK-OV-3 ovarian
# [26] = tested on: SN12C renal
# [27] = tested on: ACHN renal
# [28] = tested on: IGROV1 ovarian
# [29] = tested on: SNB-75 CNS
# [30] = tested on: MALME-3M melanoma
# [31] = tested on: UO-31 renal
# [32] = tested on: 786-0 renal
# [33] = tested on: SNB-19 CNS
# [34] = tested on: A498 renal
# [35] = tested on: M14 melanoma
# [36] = tested on: RXF 393 renal
# [37] = tested on: NCI-H522 lung
# [38] = tested on: A549 NSCLC
# [39] = tested on: SF-295 CNS
# [40] = tested on: HCC-2998 colon
# [41] = tested on: HS 578T breast
# [42] = tested on: K-562 leukemia
# [43] = tested on: SK-MEL-5 melanoma
# [44] = tested on: HT29 colon
# [45] = tested on: SR leukemia
# [46] = tested on: OVCAR-8 ovarian
# [47] = tested on: UACC-257 melanoma
# [48] = tested on: HL-60(TB) leukemia
# [49] = tested on: T-47D breast
# [50] = tested on: U251 CNS
# [51] = tested on: NCI-H23 lung
# [52] = tested on: PC-3 prostate
# [53] = tested on: KM12 colon
# [54] = tested on: NCI-H460 lung
# [55] = tested on: SK-MEL-28 melanoma
# [56] = tested on: SF-539 CNS
smiles,measurement,setting,value
O=[N+]([O-])c1cccc(-c2ccc([C@H]3CC(c4ccc(Cl)cc4)=NN3)o2)c1,TGI,[1],45.8 µM
same,TGI,[2],> 100 µM
same,TGI,[3],66.7 µM
same,TGI,[4],50.1 µM
same,TGI,[5],67.6 µM
same,TGI,[6],42.8 µM
same,TGI,[7],76.3 µM
same,TGI,[8],> 100 µM
same,TGI,[9],68.6 µM
same,TGI,[10],> 100 µM
same,TGI,[11],40.3 µM
same,TGI,[12],> 100 µM
same,TGI,[13],74.9 µM
same,TGI,[14],43.3 µM
same,TGI,[15],54.4 µM
same,TGI,[16],29.1 µM
same,TGI,[17],49.1 µM
same,TGI,[18],90.8 µM
same,TGI,[19],31.2 µM
same,TGI,[20],> 100 µM
same,TGI,[21],60.5 µM
same,TGI,[22],45.6 µM
same,TGI,[23],57.9 µM
same,TGI,[24],> 100 µM
same,TGI,[25],54.5 µM
same,TGI,[26],53.4 µM
same,TGI,[27],34.4 µM
same,TGI,[28],> 100 µM
same,TGI,[29],48.4 µM
same,TGI,[30],71.6 µM
same,TGI,[31],40.9 µM
same,TGI,[32],28.5 µM
same,TGI,[33],89.7 µM
same,TGI,[34],88.2 µM
same,TGI,[35],> 100 µM
same,TGI,[36],35.2 µM
same,TGI,[37],59.1 µM
same,TGI,[38],> 100 µM
same,TGI,[39],88.5 µM
same,TGI,[40],38.1 µM
same,TGI,[41],> 100 µM
same,TGI,[42],55 µM
same,TGI,[43],32.2 µM
same,TGI,[44],56.9 µM
same,TGI,[45],32.7 µM
same,TGI,[46],27.4 µM
same,TGI,[47],83.9 µM
same,TGI,[48],24.1 µM
same,TGI,[49],41.7 µM
CCCCCCCC(=O)N1C2CC3CCC2(CS1(=O)=O)C3(C)C (stereo unspecified),TGI,[2],41.2 µM
same,TGI,[3],72 µM
same,TGI,[4],> 100 µM
same,TGI,[5],68 µM
same,TGI,[6],> 100 µM
same,TGI,[50],69.9 µM
same,TGI,[51],> 100 µM
same,TGI,[8],> 100 µM
same,TGI,[9],> 100 µM
same,TGI,[10],> 100 µM
same,TGI,[52],69.1 µM
same,TGI,[11],26.7 µM
same,TGI,[12],35.8 µM
same,TGI,[13],71.6 µM
same,TGI,[14],> 10 µM
same,TGI,[53],74.8 µM
same,TGI,[15],> 100 µM
same,TGI,[16],35.1 µM
same,TGI,[17],55.5 µM
same,TGI,[18],44.8 µM
same,TGI,[19],> 100 µM
same,TGI,[20],61.6 µM
same,TGI,[21],61.7 µM
same,TGI,[22],41.5 µM
same,TGI,[23],44.3 µM
same,TGI,[24],> 100 µM
same,TGI,[25],> 100 µM
same,TGI,[26],49.1 µM
same,TGI,[27],> 100 µM
same,TGI,[28],> 100 µM
same,TGI,[54],> 100 µM
same,TGI,[29],> 100 µM
same,TGI,[30],34 µM
same,TGI,[31],52.4 µM
same,TGI,[32],31.7 µM
same,TGI,[33],76.5 µM
same,TGI,[34],> 100 µM
same,TGI,[35],41 µM
same,TGI,[55],> 100 µM
same,TGI,[56],41.5 µM
same,TGI,[36],31.8 µM
same,TGI,[37],48.5 µM
same,TGI,[38],> 100 µM
same,TGI,[39],50.8 µM
same,TGI,[40],51.2 µM
same,TGI,[41],> 100 µM
same,TGI,[43],34.4 µM
same,TGI,[44],> 10 µM
same,TGI,[45],40.8 µM
same,TGI,[46],> 100 µM
same,TGI,[47],68.6 µM
same,TGI,[48],41.9 µM
